According to US10981932B2, “Macrocyclic indole derivatives” (Bayer Aktiengesellschaft, priority 2016, dated 2021):
“And” between values parts separate entries of the source, which are not always exact repeats. Equal values may be shown once. Where a name gives a salt, the structure may show the parent alone. Read-outs that look alike come from different tables or passages of the source.

Tests used:
SUDHL5 [1] = test: Induction of cytotoxicity (CellTiter-Glo, 5 h), SUDHL5
OPM2 = test: Anti-proliferative effect (CellTiter-Glo, 72 h), OPM2; type: cell-based; settings: OPM2 cells, median, read-out: IC50 antiproliferation assay OPM2 [M] (median)
Summary of the method: (§1)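 A time zero plate, read with CellTiter-Glo shortly after seeding, served as baseline; compound-treated plates were incubated 72 h at 37 °C and then read identically by luminescence.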

SUDHL10 [2] = test: Anti-proliferative effect (CellTiter-Glo, 72 h), SUDHL10; type: cell-based; settings: SUDHL10 cells, antiproliferation, 72 h incubation, median, read-out: Antiproli SUDHL10 [M] (median)
Summary of the method: as §1

SUDHL5 [3] = test: Anti-proliferative effect (CellTiter-Glo, 72 h), SUDHL5; type: cell-based; settings: SUDHL5 cells, antiproliferation, 72 h incubation, median, read-out: Antiproli SUDHL5 [M] (median)
Summary of the method: as §1

MCL-1 = MCL-1 (Homo sapiens, UniProt Q07820); test: Protein-protein interaction assay MCL-1/Noxa BH3 peptide (MCL-1 assay), TR-FRET; type: binding; settings: MBP-MCL-1 / Noxa BH3-derived peptide, median
MCL-1, sequence (Q07820 whole entry): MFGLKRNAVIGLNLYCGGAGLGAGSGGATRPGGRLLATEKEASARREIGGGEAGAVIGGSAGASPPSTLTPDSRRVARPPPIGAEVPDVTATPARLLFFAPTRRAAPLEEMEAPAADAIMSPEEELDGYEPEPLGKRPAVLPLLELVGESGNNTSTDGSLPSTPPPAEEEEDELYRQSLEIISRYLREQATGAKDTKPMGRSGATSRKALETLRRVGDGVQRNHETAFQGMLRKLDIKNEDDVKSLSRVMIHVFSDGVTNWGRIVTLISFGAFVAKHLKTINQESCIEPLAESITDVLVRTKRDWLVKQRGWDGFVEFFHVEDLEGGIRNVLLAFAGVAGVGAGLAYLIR
Summary of the method: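 TR-FRET, 665/622 nm emission ratio (excitation 330–350 nm), measured MCL-1/Noxa complex formation. 1 nM MBP-MCL-1, 50 mM Tris/HCl pH 7, 0.1% BGG, 2 mM DTT. Incubation 1 h at 22 °C, then overnight at 4 °C. IC50 by 4-parameter regression, normalized to DMSO (0%) and no-MCL-1 (100%) controls.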

SUDHL10 [4] = test: Induction of cytotoxicity (CellTiter-Glo, 5 h), SUDHL10
SUDHL10 [5] = test: Induction of caspase-3/7 activity (Caspase-Glo 3/7), SUDHL10; type: cell-based; settings: caspase-3/7 induction, SUDHL10 cells, 3 h treatment, median
Summary of the method: (§2)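 DLBCL cells treated with compounds for 3 h at 37 °C, then caspase-3/7 activity read by Caspase-Glo 3/7 luminescence. Medium-only background subtracted; EC50 fitted with C0 fixed at 1 and top set to the reference compound's maximal induction.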

A2780 = test: Anti-proliferative effect (CellTiter-Glo, 72 h), A2780; type: cell-based; settings: A2780 cells, median, read-out: IC50 antiproliferation assay A2780 [M] (median)
Summary of the method: as §1

SUDHL5 [6] = test: Induction of caspase-3/7 activity (Caspase-Glo 3/7), SUDHL5; type: cell-based; settings: caspase-3/7 induction, SUDHL5 cells, 3 h treatment, median
Summary of the method: as §2

[7] = read-out: Cytotox SUDHL5 [M] (median), SUDHL5 cells, cytotoxicity induction, CellTiter-Glo, 5 h incubation, median
[8] = read-out: Cytotox SUDHL10 [M] (median), SUDHL10 cells, cytotoxicity induction, CellTiter-Glo, 5 h incubation, median
[9] = Homo sapiens, SU-DHL-5, 5 h, read-out: Cytotox SUDHL5 [M] (median), SUDHL5 cells, cytotoxicity induction, CellTiter-Glo, 5 h incubation, median
[10] = Homo sapiens, SU-DHL10, 5 h, read-out: Cytotox SUDHL10 [M] (median), SUDHL10 cells, cytotoxicity induction, CellTiter-Glo, 5 h incubation, median

Row | Compound | IC50 (SUDHL10 [2]) | IC50 (SUDHL5 [3]) [M] | IC50 (MCL-1) [nM] | EC50 (SUDHL10 [5]) | IC50 (A2780) [M] | EC50 (SUDHL5 [6]) [µM] | IC50 (SUDHL10 [2]; Homo sapiens, SU-DHL10, 72 h) [M] | IC50 (SUDHL5 [3]; Homo sapiens, SU-DHL-5, 72 h) [M] | EC50 (SUDHL10 [5]; Homo sapiens, SU-DHL10, 3 h) [µM] | IC50 (A2780; Homo sapiens, A2780, 72 h) [M] | EC50 (SUDHL5 [6]; Homo sapiens, SU-DHL-5, 3 h) [µM] | IC50 (SUDHL5 [1]; [7]) [M] | IC50 (OPM2) [M] | IC50 (SUDHL10 [4]; [8]) [M] | IC50 (SUDHL5 [1]; [9]) [M] | IC50 (OPM2; Homo sapiens, OPM-2, 72 h) [M] | IC50 (SUDHL10 [4]; [10]) [M]
1 | Cc1nn(C)c2c1-c1cccc3c(CCCOc4cccc5ccccc45)c(C(=O)O)n(c13)CCCN(C)C2 (single isomer, unassigned; enantiomer 2) [Example 1-32, 7,9,11-trimethyl-1-[3-(naphthalen-1-yloxy)propyl]-4,5,6,7,8,9-hexahydropyrazolo[3′,4′:7,8][1,5]diazecino[9,10,1-hi]indole-2-carboxylic Acid-N-ethylethanamine Salt (Enantiomer 2)] | 1.18e-05 M | 1.63e-05 | 49.2 | 22.9 µM and 20.4 µM and > 33 µM | 1.82e-05 | > 33 |  |  |  |  |  | > 3.3e-05 | 2.76e-05 | 3.23e-05 |  |  | 
2 | CCN(CC)S(=O)(=O)N1CCN(c2ccc(OCc3nn(C)c4c3-c3cccc5c(CCCOc6cccc7ccccc67)c(C(=O)O)n(c35)CCCCOC4)cc2)CC1 (racemic) [Example 1-3, (rac)-3-({4-[4-(diethylsulfamoyl)piperazin-1-yl]phenoxy}methyl)-1-methyl-7-[3-(naphthalen-1-yloxy)propyl]-1,10,11,12,13,15-hexahydropyrazolo[4′,3′:9,10][1,6]oxazacycloundecino[8,7,6-hi]indole-8-carboxylic Acid] |  |  | 3.78 |  |  |  | 1.9e-06 | 1.27e-06 | 2.36 | 4.86e-06 | 2 |  |  |  | 2.68e-06 | 2.11e-06 | 2.64e-06
3 | CN1CCCn2c(C(=O)O)c(CCCOc3cccc4ccccc34)c3cccc(c32)-c2c(COc3ccc(N4CCOCC4)cc3)nn(C)c2C1 (single isomer, unassigned) [Example 1-88, (+)-7,9-dimethyl-11-{[4-(morpholin-4-yl)phenoxy]methyl}-1-[3-(naphthalen-1-yloxy)propyl]-4,5,6,7,8,9-hexahydropyrazolo[3′,4′:7,8][1,5]diazecino[9,10,1-hi]indole-2-carboxylic Acid] |  |  | 7.89 | 6.35 µM |  |  | > 3.3e-05 | > 3.3e-05 |  | > 3.3e-05 | 6.03 | 5.9e-06 |  |  |  | > 3.3e-05 | 6.19e-06
4 | CC(=O)N1CCN(c2ccc(OCc3nn(C)c4c3-c3cccc5c(CCCOc6cccc7ccccc67)c(C(=O)O)n(c35)CCCCOC4)cc2)CC1 (racemic) [Example 1-24, (rac)-3-{[4-(4-acetylpiperazin-1-yl)phenoxy]methyl}-1-methyl-7-[3-(naphthalen-1-yloxy)propyl]-1,10,11,12,13,15-hexahydropyrazolo[4′,3′:9,10][1,6]oxazacycloundecino[8,7,6-hi]indole-8-carboxylic Acid] |  |  | 2.31 |  |  |  | 6.52e-06 | 4.7e-06 | 6.61 | > 3.3e-05 | 4.28 |  |  |  | 2.23e-06 | 2.97e-05 | 4.33e-06
5 | Cn1nc(COc2ccc(C3=CCOCC3)cc2)c2c1COCCCCn1c(C(=O)O)c(CCCOc3cccc4ccccc34)c3cccc-2c31 (single isomer, unassigned) [Example 1-63, 3-{[4-(3,6-dihydro-2H-pyran-4-yl)phenoxy]methyl}-1-methyl-7-[3-(naphthalen-1-yloxy)propyl]-1,10,11,12,13,15-hexahydropyrazolo[4′,3′:9,10][1,6]oxazacycloundecino[8,7,6-hi]indole-8-carboxylic Acid] | 7.77e-06 M | 3.37e-06 | 8.64 | 7.32 µM | 1.11e-05 | 7.66 |  |  |  |  |  | 6.23e-06 | 1.18e-05 | 7.04e-06 |  |  | 

Now from value to compound, other results behind:

Row | IC50 (SUDHL10 [2]) | IC50 (SUDHL5 [3]) [M] | IC50 (MCL-1) [nM] | EC50 (SUDHL10 [5]) | IC50 (A2780) [M] | EC50 (SUDHL5 [6]) [µM] | IC50 (SUDHL10 [2]; Homo sapiens, SU-DHL10, 72 h) [M] | IC50 (SUDHL5 [3]; Homo sapiens, SU-DHL-5, 72 h) [M] | EC50 (SUDHL10 [5]; Homo sapiens, SU-DHL10, 3 h) [µM] | IC50 (A2780; Homo sapiens, A2780, 72 h) [M] | EC50 (SUDHL5 [6]; Homo sapiens, SU-DHL-5, 3 h) [µM] | Compound | IC50 (SUDHL5 [1]; [7]) [M] | IC50 (OPM2) [M] | IC50 (SUDHL10 [4]; [8]) [M] | IC50 (SUDHL5 [1]; [9]) [M] | IC50 (OPM2; Homo sapiens, OPM-2, 72 h) [M] | IC50 (SUDHL10 [4]; [10]) [M]
6 |  |  | 3.4 |  |  |  | 5.65e-06 | 1.11e-06 | 4.91 | 9.51e-06 | 4.54 | Cc1ccc2c(CCCOc3cccc4ccccc34)c(C(=O)O)n3c2c1-c1c(nn(C)c1C)CN(C)CCC3 (racemic) [Example 072, (rac)-7,10,11,12-tetramethyl-1-[3-(naphthalen-1-yloxy)propyl]-4,5,6,7,8,10-hexahydropyrazolo[3′,4′:7,8][1,5]diazecino[9,10,1-hi]indole-2-carboxylic Acid] |  |  |  | 3.43e-06 | 8.23e-06 | 6.12e-06
7 | 6.45e-06 M |  | 2.68 | 13.4 µM |  | 6.48 |  | 2.24e-06 |  | > 3.3e-05 |  | CCOCc1nn(C)c2c1-c1cccc3c(CCCOc4cccc5c4CCCC5)c(C(=O)O)n(c13)CCCCOC2 (single isomer, unassigned; enantiomer 1) [Example 171, 3-(ethoxymethyl)-1-methyl-7-[3-(5,6,7,8-tetrahydronaphthalen-1-yloxy)propyl]-1,10,11,12,13,15-hexahydropyrazolo[4′,3′:9,10][1,6]oxazacycloundecino[8,7,6-hi]indole-8-carboxylic Acid (Enantiomer 1)] | 5.08e-06 | 1.23e-05 | 1.39e-05 |  |  | 
8 | 2.98e-05 M and > 3.3e-05 M | 1.75e-05 | 23.8 | > 33 µM |  |  |  |  | 28.6 | > 3.3e-05 | 13.8 | COCc1nn(C)c2c1-c1cccc3c(CCCOc4cccc5ccccc45)c(C(=O)O)n(c13)CCCCOC2 (single isomer, unassigned; enantiomer 1) [Example 159, 3-(methoxymethyl)-1-methyl-7-[3-(naphthalen-1-yloxy)propyl]-1,10,11,12,13,15-hexahydropyrazolo[4′,3′:9,01][1,6]oxazacycloundecino[8,7,6-hi]indole-8-carboxylic acid-N-ethylethanamine Salt (Enantiomer 1)] |  |  | > 3.3e-05 | 1.76e-05 | > 3.3e-05 | 3.05e-05
9 |  |  | 18.7 |  |  |  | 3.05e-06 | 6.64e-06 | 13.4 | 1.1e-05 | 11.2 | CN1CCCn2c(C(=O)O)c(CCCOc3cccc4ccccc34)c3cccc(c32)-c2c(CCN3CCOCC3)nn(C)c2C1 (racemic) [Example 124, (rac)-7,9-dimethyl-11-[2-(morpholin-4-yl)ethyl]-1-[3-(naphthalen-1-yloxy)propyl]-4,5,6,7,8,9-hexahydropyrazolo[3′,4′:7,8][1,5]diazecino[9,10,1-hi]indole-2-carboxylic Acid] |  |  |  | 1.71e-05 | 1.48e-05 | 1.61e-05
10 |  |  | 3.41 |  |  |  | 7.88e-06 | 1.47e-06 | 5.67 | > 3.3e-05 | 2.51 | Cc1c2c(nn1CCN1CCOCC1)COCCCCn1c(C(=O)O)c(CCCOc3cccc4ccccc34)c3cccc-2c31 (racemic) [Example 053, (rac)-3-methyl-2-[2-(morpholin-4-yl)ethyl]-7-[3-(naphthalen-1-yloxy)propyl]-2,10,11,12,13,15-hexahydropyrazolo[4′,3′:9,10][1,6]oxazacycloundecino[8,7,6-hi]indole-8-carboxylic Acid] |  |  |  | 3e-06 | 1.11e-05 | 7.75e-06
11 | 2.02e-05 M | > 3.3e-05 | 54.1 | 27.5 µM | > 3.3e-05 | 11.7 |  |  |  |  |  | CN1CCCn2c(C(=O)O)c(CCCOc3cccc4ccccc34)c3cccc(c32)-c2c(COc3ccc(N4CCOCC4)cc3)nn(C)c2C1 (single isomer, unassigned) [Example 1-89, (−)-7,9-dimethyl-11-{[4-(morpholin-4-yl)phenoxy]methyl}-1-[3-(naphthalen-1-yloxy)propyl]-4,5,6,7,8,9-hexahydropyrazolo[3′,4′:7,8][1,5]diazecino[9,10,1-hi]indole-2-carboxylic Acid] | 1.39e-05 | > 3.3e-05 | 1.14e-05 |  |  | 
